Patent publication US10564162B2, “Predictive biomarkers” (BIONOMICS LIMITED, priority 2014, dated 2020)

What was measured:
[1] = test system: tumour endothelial cells (activated) and normal endothelial cells (quiescent); assay: Potency against activated versus quiescent endothelial cells; assay type: cell-based
[2] = test system: tubulin; assay: Tubulin polymerisation inhibition; assay type: biochemical
[3] = test system: Serum Amyloid P-Component (SAP); assay: Disruptor-1 trial: plasma SAP level post versus pre BNC105P infusion (Human CustomMAP, Luminex); assay type: in vivo
Text: (§1) The objective of the study was to determine the response rate of patients administered BNC105P (vascular disrupting agent) in combination with everolimus (mTOR inhibitor) in patients who had progressed from prior tyrosine kinase inhibitor therapy. In addition, the present inventors determined the improvement in 6-months progression free survival (PFS) with the addition of BNC105P to everolimus (Afinitor). A control group of patients received everolimus alone.
(§2) Patients in the BNC105P in combination with everolimus study group (the “combination arm”) were administered 10 mg oral everolimus daily. On days 1 and 8 of the 21 day cycle period, the patients were administered 16 mg/m^2 BNC105P, which had been determined to be the maximum tolerated dose, by intravenous infusion over a 10 minute period (FIG. 1). Treatment was continued until disease progressed, intolerable toxicity became apparent, or until consent was withdrawn. A control group of patients were administered with everolimus alone.
(§3) Human EDTA plasma samples were taken from patients to quantitatively measure the concentration of 56 analytes from the Human CustomMAP at Myriad RBM (MRBM). […]
(§4) The biomarker levels at each time and the change in biomarker levels were examined. The mean change from pre- to post-infusion was calculated as the mean of C1D1 pre-infusion minus C1D1 post-infusion. […]

[4] = test system: Sex Hormone-Binding Globulin (SHBG); assay: Disruptor-1 trial: plasma SHBG level post versus pre BNC105P infusion (Human CustomMAP, Luminex); assay type: in vivo
Text: as §1, §2, §3, §4

[5] = test system: Stem Cell Factor (SCF); assay: Disruptor-1 trial: plasma SCF level post versus pre BNC105P infusion (Human CustomMAP, Luminex); assay type: in vivo
Text: as §1, §2, §3, §4

[6] = test system: Matrix Metalloproteinase-9 (MMP-9); assay: Disruptor-1 trial: plasma MMP-9 level post versus pre BNC105P infusion (Human CustomMAP, Luminex); assay type: in vivo
Text: as §1, §2, §3, §4

[7] = test system: Myoglobin (MB); assay: Disruptor-1 trial: plasma Myoglobin level post versus pre BNC105P infusion (Human CustomMAP, Luminex); assay type: in vivo
Text: as §1, §2, §3, §4

[8] = Maximum tolerated dose of BNC105P in patients; assay type: in vivo, Human; conditions: intravenous infusion over 10 minutes, days 1 and 8 of 21 day cycle, with 10 mg oral everolimus daily
Method: as §2

[9] = plasma, renal cell carcinoma patients, 16 mg/m^2 BNC105P i.v. infusion plus 10 mg oral everolimus daily, post versus pre infusion
[10] = post/baseline plasma ratio after BNC105P, patients split at the median

COc1ccc(/C=C\c2cc(OC)c(OC)c(OC)c2)cc1O [Combretastatin A4, reference compound]
selectivity between activated (tumour) and quiescent (normal) endothelial cells (in words) [1]: equally potent against quiescent and activated endothelial cells

COc1cc(C(=O)c2c(C)oc3c(O)c(OC)ccc23)cc(OC)c1OC [III, 2-methyl-7-hydroxy-3-(3,4,5-trimethoxybenzoyl)-6-methoxybenzofuran]
selectivity between activated (tumour) and quiescent (normal) endothelial cells (in words) [1]: show selectivity towards tumor endothelial cells (activated) over normal endothelial cells (quiescent)
tubulin polymerisation inhibition (in words) [2]: potent tubulin polymerisation inhibitors

COc1cc(C(=O)c2c(C)oc3c(OP(=O)([O-])[O-])c(OC)ccc23)cc(OC)c1OC.[Na+].[Na+] [BNC105P, disodium [6-methoxy-2-methyl-3-(3,4,5-trimethoxybenzoyl)-1-benzofuran-7-yl]phosphate]
Median Post/Baseline Ratio, SAP [3, 9]: 0.95
Biomarker change Ratio Range associated with better PFS, SAP [3, 10]: ≤0.95
Median Post/Baseline Ratio, SHBG [4, 9]: 0.92
Biomarker change Ratio Range associated with better PFS, SHBG [4, 10]: ≤0.92
Median Post/Baseline Ratio, SCF [5, 9]: 1.0
Biomarker change Ratio Range associated with better PFS, SCF [5, 10]: >1
Median Post/Baseline Ratio, MMP-9 [6, 9]: 1.060
Biomarker change Ratio Range associated with better PFS, MMP-9 [6, 10]: >1.060
Median Post/Baseline Ratio, Myoglobin [7, 9]: 0.935
Biomarker change Ratio Range associated with better PFS, Myoglobin [7, 10]: ≤0.935
maximum tolerated dose [8]: 16 mg/m^2
